Assay [1] relates to P. hermaphrodita complex I. The experiment in a line: In vitro complex I activity assay, P. hermaphrodita mitochondria. The class given is biochemical, Phasmarhabditis hermaphrodita. The note with it: purified mitochondria. As for the experimental part:
Mitochondria were isolated from the following free-living nematode strains: C. elegans—N2, CB3474, ECA882, ECA917, ECA1075, ECA1080; C. briggsae—AF16; P. pacificus—PS312; and P. hermaphrodita—B178. With the exception of the P. hermaphrodita strain B178, adult worms of each strain were grown in bulk through liquid culture to obtain mitochondria in sufficient quantities. Due to poor growth in liquid media, mixed stage populations of P. hermaphrodita were washed off and collected from NGM plates seeded with OP50. The isolation of mitochondria from all free-living nematode strains followed the protocol previously outlined in Burns et al.[24]. In brief, a 1 L saturated culture of E. coli HB101 was concentrated 20-fold in 50 mL complete S-medium. ~500,000 L1 worms synchronized from an embryo preparation performed the day prior were added to the S-media/HB101 suspension and grown to adulthood over the course of 3.5 days at 20 °C with shaking at 165 rpm. Following growth, worms were collected in 10 ×15 mL conical tubes and washed 7 times in M9 buffer. Worm suspensions were then combined into a single 15 mL conical tube and diluted to a final volume of 15 mL with M9 buffer. 1 mL aliquots of worm suspension were then distributed to 15 × 1.5 mL screw-cap microcentrifuge tubes and were pelleted at 500 g for 1 min. Excess M9 was aspirated without disturbing the worm pellet. 600 μL ice-cold isolate buffer A (250 mM sucrose, 10 mM Tris (pH 7.5), 1 mM EDTA, 1 mM PMSF (freshly prepared)) and 300 μL cold glass beads were then added to each tube. Tubes were incubated on ice for 10 min, and the worms were then lysed by bead beating (6 x 30 s, with 1 min cooling intervals). Tubes containing worm lysate were centrifuged at 1,000 g for 10 min at 4 °C and the supernatant was transferred to 15 new microcentrifuge tubes on ice. The tubes were centrifuged a second time at 1,000 g for 10 min at 4 °C and the supernatant was once again transferred to 15 new microcentrifuge tubes on ice. These tubes were then centrifuged at 16,000 g for 10 min at 4 °C. The resulting mitochondrial pellet was washed twice by re-suspension in 300 μL of ice-cold isolate buffer B (250 mM sucrose, 10 mM Tris (pH 7.5), 1 mM EDTA). Following the final wash, isolation buffer was aspirated from each tube and the pellets were flash-frozen in ethanol/dry ice and stored at −80 °C until needed.
The enzymatic activities of individual ETC complexes (I-IV) were assessed spectrophotometrically in isolated mitochondria using a Varioskan LUX Multimode plate reader (ThermoFisher Scientific). Mitochondrial pellets previously isolated were thawed on ice and resuspended in ice-cold isolation buffer (250 mM sucrose, 10 mM Tris (pH 7.5), 1 mM EDTA). The BCA assay (Walker, 1994) was used to quantify the protein concentration of mitochondria suspensions; solutions were diluted to a concentration of 0.2 mg/mL for use in all assays. For the complex I assay, mitochondria pellets were freeze-thawed on ice three times to increase enzyme accessibility. […] 20 μL mitochondria suspension was then added/mixed with a pipette to initiate the reaction. Immediately following the addition of mitochondria, absorbance was measured (complex I and II: 600 nm; complex III and IV: 550 nm) in 30 s intervals over 15 min. Enzymatic activity was determined in each reaction by plotting absorbance versus time and calculating the slope of the curve during the initial linear phase of the reaction. […] Percent activity of each complex was calculated by dividing the enzyme-specific activity of each well by the enzyme-specific activity of the corresponding solvent controls.
Chemical solutions were prepared in complex I assay buffer composed of 25 mM KPi buffer (pH 7.5), 3 mg/mL bovine serum albumin (BSA), 80 μM NADH, 60 μM decylubiquinone, 160 μM DCIP, 2 μM antimycin A and 2 mM KCN. […]

A further assay relates to L1 wild-type C. elegans. Description: 15-hour motility assay with drug alone (no KCN). The format is cell-based, Caenorhabditis elegans.
The mark [2] stands for this setting: 15 hour drug alone (without KCN) treatment, dose 0.1 µM, Mean of replicates.
[3] abbreviates: 15 hour drug alone (without KCN) treatment, dose 0.1 µM, individual replicates.
Where [4] appears, read: 15 hour drug alone (without KCN) treatment, dose 0.2 µM, Mean of replicates.
Where [5] appears, read: 15 hour drug alone (without KCN) treatment, dose 0.2 µM, individual replicates.
Setting [6] is: 15 hour drug alone (without KCN) treatment, dose 0.4 µM, Mean of replicates.
[7] abbreviates: 15 hour drug alone (without KCN) treatment, dose 0.4 µM, individual replicates.
[8] abbreviates: 15 hour drug alone (without KCN) treatment, dose 0.8 µM, Mean of replicates.
The mark [9] stands for this setting: 15 hour drug alone (without KCN) treatment, dose 0.8 µM, individual replicates.
Where [10] appears, read: 15 hour drug alone (without KCN) treatment, dose 3.1 µM, Mean of replicates.
Where [11] appears, read: 15 hour drug alone (without KCN) treatment, dose 3.1 µM, individual replicates.
The mark [12] stands for this setting: 15 hour drug alone (without KCN) treatment, dose 6.3 µM, Mean of replicates.
Where [13] appears, read: 15 hour drug alone (without KCN) treatment, dose 6.3 µM, individual replicates.
The mark [14] stands for this setting: 15 hour drug alone (without KCN) treatment, dose 12.5 µM, Mean of replicates.
Where [15] appears, read: 15 hour drug alone (without KCN) treatment, dose 12.5 µM, individual replicates.
Where [16] appears, read: 15 hour drug alone (without KCN) treatment, dose 25 µM, Mean of replicates.
Where [17] appears, read: 15 hour drug alone (without KCN) treatment, dose 25 µM, individual replicates.
The mark [18] stands for this setting: 15 hour drug alone (without KCN) treatment, dose 50 µM, Mean of replicates.
Setting [19] is: 15 hour drug alone (without KCN) treatment, dose 50 µM, individual replicates.
The mark [20] stands for this setting: 15 hour drug alone (without KCN) treatment, dose 100 µM, Mean of replicates.
[21] abbreviates: 15 hour drug alone (without KCN) treatment, dose 100 µM, individual replicates.

Molecules are shown by their SMILES. Several values for one entry are separate records, joined by “and”; a condition that tells them apart may be missing. Identical values can stand only once. Like-named read-outs stand apart in the source and are kept apart here.

Usually IC50 stands for the point on the concentration scale where inhibition reaches its midpoint. The low end stands for inhibition by little substance, the high end for a need for much substance. As to `Cc1ccccc1OCCCCn1cnc2ccccc21` [Compound 7732524], the IC50 in assay [1] was determined as 68.7 nM.
As to `O=C(NCCc1ccc(Cl)cc1)c1ccccc1C(F)(F)F` [Wact-11], the “Value relative to DMSO control, drug alone (without KCN)” value with L1 wild-type C. elegans was 0.932; with L1 wild-type C. elegans (setting [2]), 1.053; in the assay on L1 wild-type C. elegans (setting [3]), 0.994 and 1.015 and 1.070 and 1.131; with L1 wild-type C. elegans (setting [4]) it was 1.080; in the assay on L1 wild-type C. elegans (setting [5]) it was 0.940 and 1.013 and 1.214 and 1.154; in the assay on L1 wild-type C. elegans (setting [6]), 1.046. The “Value relative to DMSO control, drug alone (without KCN)” value is 0.988 and 1.230 and 1.034 in the assay on L1 wild-type C. elegans (setting [7]); 1.007 with L1 wild-type C. elegans (setting [8]); 0.912 and 0.907 and 0.949 and 1.257 in the assay on L1 wild-type C. elegans (setting [9]); 0.983 with L1 wild-type C. elegans (setting [10]); 0.954 and 0.915 and 1.162 and 0.901 in the assay on L1 wild-type C. elegans (setting [11]); 0.923 with L1 wild-type C. elegans (setting [12]). The “Value relative to DMSO control, drug alone (without KCN)” value in the assay with L1 wild-type C. elegans (setting [13]) was 0.914 and 0.918 and 0.975 and 0.884; in the assay on L1 wild-type C. elegans (setting [14]), 0.780; with L1 wild-type C. elegans (setting [15]) it was 0.693 and 0.662 and 1.090 and 0.677; with L1 wild-type C. elegans (setting [16]) it was 0.783; in the assay with L1 wild-type C. elegans (setting [17]), 0.523 and 0.436 and 0.991 and 1.184; in the assay with L1 wild-type C. elegans (setting [18]), 0.600. The “Value relative to DMSO control, drug alone (without KCN)” value in the assay with L1 wild-type C. elegans (setting [19]) was 0.549 and 0.392 and 0.803 and 0.657; in the assay on L1 wild-type C. elegans (setting [20]), 0.425; in the assay with L1 wild-type C. elegans (setting [21]), 0.232 and 0.150 and 0.884 and 0.433.
For `Cc1cc(O)c2c(c1)O[C@@]1(C)CC[C@H]3C(C)(C)CCC[C@]34CO[C@@H]2[C@H]41` [Siccanin], the “Value relative to DMSO control, drug alone (without KCN)” value is 1.015 with L1 wild-type C. elegans (setting [2]); 1.185 and 1.067 and 1.014 and 0.891 and 0.918 in the assay on L1 wild-type C. elegans (setting [3]); 1.093 with L1 wild-type C. elegans (setting [4]); 1.232 and 1.040 and 1.048 and 0.936 and 1.206 in the assay on L1 wild-type C. elegans (setting [5]); 1.048 in the assay with L1 wild-type C. elegans (setting [6]); 1.109 and 1.211 and 1.036 and 0.917 and 0.964 with L1 wild-type C. elegans (setting [7]). Further, the “Value relative to DMSO control, drug alone (without KCN)” value in the assay with L1 wild-type C. elegans (setting [8]) was 1.013; in the assay on L1 wild-type C. elegans (setting [9]) it was 1.207 and 1.062 and 0.959 and 0.891 and 0.945; in the assay with L1 wild-type C. elegans (setting [10]), 1.008; with L1 wild-type C. elegans (setting [11]), 1.037 and 1.098 and 0.979 and 0.904 and 1.020; with L1 wild-type C. elegans (setting [12]), 0.898; in the assay on L1 wild-type C. elegans (setting [13]), 0.890 and 0.970 and 0.950 and 0.655 and 1.026. Also, the “Value relative to DMSO control, drug alone (without KCN)” value was 0.790 in the assay on L1 wild-type C. elegans (setting [14]); 1.073 and 0.897 and 0.844 and 0.477 and 0.657 in the assay with L1 wild-type C. elegans (setting [15]); 0.737 in the assay with L1 wild-type C. elegans (setting [16]); 0.991 and 0.757 and 0.575 and 0.705 and 0.658 in the assay with L1 wild-type C. elegans (setting [17]); 0.668 in the assay with L1 wild-type C. elegans (setting [18]); 0.587 and 0.826 and 0.603 and 0.513 and 0.810 in the assay on L1 wild-type C. elegans (setting [19]). The “Value relative to DMSO control, drug alone (without KCN)” value was 0.433 with L1 wild-type C. elegans (setting [20]); 0.545 and 0.463 and 0.295 and 0.375 and 0.488 with L1 wild-type C. elegans (setting [21]).

(Values after PMC11079024, “Identification of a family of species-selective complex I inhibitors as potential anthelmintics” (Nature Communications, 2024).)
